According to PubChem BioAssay AID1963825 (Molecular Pharmacology Branch, DTP, NCI, 2024):

Experiment: Anticancer human tumor 997537-175-T-J1-PDC patient-derived colon adenocarcinoma cell line growth inhibition [POLQ]
Conditions: 997537-175-T-J1-PDC complex spheroid viability, combination with POLQ inhibitors; for IC50: curve of first compound; for viability, T/C: stronger effect = lower value; active means viability on the fitted dose curve at most 10% of control; inactive means the rest
Experimental: Multicellular complex tumor spheroid response to Polymerase (POL) inhibitors (novobiocin, ART-558, RP6685) in combination with a variety of drugs and investigational agents in selected tumor cell lines
The POL inhibitors (novobiocin, ART-558, and RP6685) were evaluated both individually and in combination with standard of care and investigational anticancer small molecules within a complex spheroid model of solid tumors. . Complex spheroids include a stromal component modeled by human endothelial cells (HUVEC) and fibroblasts modeled by human mesenchymal stem cells (MSCs). The concentration ranges selected for each drug and investigational agent were based upon clinically achievable concentrations if the clinical Cmax of the agent was known.
Compounds. The drugs and investigational agents: novobiocin (NSC847541), ART-558 (NSC835418), RP-6685 (NSC848927), peposertib (NSC802822), ceralasertib (NSC780249), elimusertib (NSC800525), camonsertib (NSC841442), AZD-1390 (NSC803789), olaparib (NSC753686), talazoparib (NSC767125), rucaparib (NSC756644), sotorasib (NSC818433), MRTX-1133 (NSC836407), SN-38 (NSC673596), topotecan (NSC609699), epotoside (NSC141540), doxorubicin (NSC123127), gemcitabine (NSC613327), 5-fluorouracil (NSC19893), paclitaxel (NSC125973), vemurafenib (NSC761431), MSA-2 (NSC828583), SN-011 (NSC837082), adavosertib (NSC754352), prexasertib (NSC758257), carboplatin (NSC241240) and oxaliplatin (NSC266046), were obtained from the National Cancer Institute (NCI) Developmental Therapeutics Program Chemical Repository (21). The FDA-approved anticancer drug set is available from the Developmental Therapeutics Program at https://dtp.cancer.gov/organization/dscb/obtaining/. […] The stock solutions were prepared in dimethyl sulfoxide (DMSO, Sigma-Aldrich, St. Louis, MO, cat. D2650), except for the platinum compounds which were prepared in saline (Quality Biological, Gaithersburg, MD, cat. 114-055-101), at 800-fold the tested concentration and stored at -70 degrees C prior to their use. All drugs and investigational agents were tested over a range starting from a high concentration at or near the clinical Cmax and decreasing in half-log increments. If the clinical Cmax for an agent had not been determined, the highest concentration tested was 10 microM, except for SN-38, which was tested at a high concentration of 1 microM.
Cell Culture. All cells were maintained in an incubator at 37 degrees C and 5% CO2 with 95% humidity. The PDC lines were cultured according to standard operating procedures established by the NCI PDMR (https://pdmr.cancer.gov). Table 3 of the manuscript, lists the cell lines along with the number of the three cell types plated to form the mct-spheroids and media for tumor cell growth. After thawing, all PDC lines, except 997537-175-T-J1-PDC and 415267-285-R-J2-PDC, were cultured in Matrigel-coated flasks prepared with a working solution of 1X Ham's F-12 nutrient mix, without supplementation (Thermo Fisher Scientific, cat. 11765054), 100 U/mL penicillin-streptomycin (Thermo Fisher Scientific, cat. 15140122), and 2.5% Matrigel (Corning Inc., Corning, NY, cat. 354248) for the first three passages. The two PDC lines 997537-175-T-J1-PDC and 415267-285-R-J2-PDC were cultured on uncoated flasks. The 857933-349-R-J2-PDC line was cultured in 6C/Colon 1B media containing advanced DMEM/F-12 (Thermo Fisher Scientific, cat. 12634028), 10 mM HEPES (Thermo Fisher Scientific, cat. 15630080), 1X GlutaMAX supplement (Thermo Fisher Scientific, cat. 35050061), 0.1 mg/mL primocin (InvivoGen, San Diego, CA, cat. ant-pm-2), 10% defined fetal bovine serum, heat inactivated (HyClone Laboratories Inc., Logan, UT, cat. SH30070.03HI), 50% L-WRN conditioned media (ATCC, cat. CRL-3276), 1.25 mM N-Acetyl-L-cysteine (Sigma-Aldrich, cat. A9165), 10 mM nicotinamide (Sigma-Aldrich, cat. N0636), 1X B-27 supplement (Thermo Fisher Scientific, cat. 17504044), 1X N-2 supplement (Thermo Fisher Scientific, cat. […]
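Further: luminescence signal used as a surrogate for viable cells; spheroids exposed to drugs for seven days before readout.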

C#Cc1c(F)ccc2cc(O)cc(-c3ncc4c(N5CC6CCC(C5)N6)nc(OCC56CCCN5CC(F)C6)nc4c3F)c12 (configuration not stated) + COC1C(OC(N)=O)C(O)C(Oc2ccc3c(O)c(NC(=O)c4ccc(O)c(CC=C(C)C)c4)c(=O)oc3c2C)OC1(C)C
> 10 µM: IC50 (second compound 0.0316 µM) | IC50 (second compound 0.1 µM) | IC50 (second compound 0.316 µM) | IC50 (second compound 1 µM) | IC50 (second compound 3.16 µM) | IC50 (second compound 10 µM)
inactive: viability, T/C (second compound 0.0316 µM, first compound 0.0316 µM) 98.8% | viability, T/C (second compound 0.0316 µM, first compound 0.1 µM) 111% | viability, T/C (second compound 0.0316 µM, first compound 0.316 µM) 103% | viability, T/C (second compound 0.0316 µM, first compound 1 µM) 108% | viability, T/C (second compound 0.0316 µM, first compound 3.16 µM) 112% | viability, T/C (second compound 0.0316 µM, first compound 10 µM) 107% | viability, T/C (second compound 0.1 µM, first compound 0.0316 µM) 119% | viability, T/C (second compound 0.1 µM, first compound 0.1 µM) 104% | viability, T/C (second compound 0.1 µM, first compound 0.316 µM) 105% | viability, T/C (second compound 0.1 µM, first compound 1 µM) 99% | viability, T/C (second compound 0.1 µM, first compound 3.16 µM) 123% | viability, T/C (second compound 0.1 µM, first compound 10 µM) 103% | viability, T/C (second compound 0.316 µM, first compound 0.0316 µM) 108% | viability, T/C (second compound 0.316 µM, first compound 0.1 µM) 116% | viability, T/C (second compound 0.316 µM, first compound 0.316 µM) 97.9% | viability, T/C (second compound 0.316 µM, first compound 1 µM) 104% | viability, T/C (second compound 0.316 µM, first compound 3.16 µM) 101% | viability, T/C (second compound 0.316 µM, first compound 10 µM) 98.4% | viability, T/C (second compound 1 µM, first compound 0.0316 µM) 107% | viability, T/C (second compound 1 µM, first compound 0.1 µM) 121% | viability, T/C (second compound 1 µM, first compound 0.316 µM) 94.9% | viability, T/C (second compound 1 µM, first compound 1 µM) 95.9% | viability, T/C (second compound 1 µM, first compound 3.16 µM) 111% | viability, T/C (second compound 1 µM, first compound 10 µM) 97.9% | viability, T/C (second compound 3.16 µM, first compound 0.0316 µM) 108% | viability, T/C (second compound 3.16 µM, first compound 0.1 µM) 112% | viability, T/C (second compound 3.16 µM, first compound 0.316 µM) 84.1% | viability, T/C (second compound 3.16 µM, first compound 1 µM) 104% | viability, T/C (second compound 3.16 µM, first compound 3.16 µM) 119% | viability, T/C (second compound 3.16 µM, first compound 10 µM) 95.8% | viability, T/C (second compound 10 µM, first compound 0.0316 µM) 101% | viability, T/C (second compound 10 µM, first compound 0.1 µM) 108% | viability, T/C (second compound 10 µM, first compound 0.316 µM) 109% | viability, T/C (second compound 10 µM, first compound 1 µM) 106% | viability, T/C (second compound 10 µM, first compound 3.16 µM) 110% | viability, T/C (second compound 10 µM, first compound 10 µM) 97.1%
